From patent US20100267561A1, “HERBICIDAL PYRIDAZINONE DERIVATIVES” (priority 2007, published 2010)

How the values were obtained:
Assay type in all cases: in vivo
[1] = test system: spanishneedles (Bidens bipinnata); assay: Test E pre-/postemergence plant response; settings: scale 0 to 100
How it was run: (§1)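 Visual rating 0–100 vs untreated controls (0 = no effect, 100 = complete control) after 14–21 d greenhouse. Pre- and postemergence treatments; compound in non-phytotoxic solvent mix + surfactant. Post plants 2–18 cm, 1- to 4-leaf stage.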

[2] = test system: common ragweed (Ambrosia elation); assay: Test E pre-/postemergence plant response; settings: scale 0 to 100
How it was run: as §1

[3] = test system: field bindweed (Convolvulus arvensis); assay: Test E pre-/postemergence plant response; settings: scale 0 to 100
How it was run: as §1

[4] = test system: wild oat (AVEFA, Avena fatua); assay: Test F mixtures with safener cloquintocet-mexyl, pre-/postemergence plant response; settings: applied alone
From the text: (§2) This test evaluated the effect of mixtures of Compound 3, Compound 11, or Compound 12 with the commercial crop safener cloquintocet-mexyl on three plant species. Seeds of test plants consisting of winter wheat (TRZAW, Triticum aestivum), winter barley (HORVX, Hordeum vulgare), and wild oat (AVEFA, Avena fatua) (a weed) were planted into a blend of loam soil and sand and treated preemergence with a directed soil spray using test chemicals formulated in a non-phytotoxic solvent mixture that included a surfactant. At the same time, plants selected from these crop and weed species were treated with postemergence applications of the test chemicals formulated in the same manner. Plants ranged in height from 2 to 18 cm (1- to 4-leaf stage) for postemergence treatments.
(§3) Plants were grown in a greenhouse using supplemental lighting to maintain a photoperiod of about 16 hours; daytime and nighttime temperatures were about 24-30° C. and 19-21° C., respectively. Balanced fertilizer was applied through the watering system. Treatments consisted of Compound 3, Compound 11, or Compound 12 and the above mentioned safener alone and in combination using a spray volume of 457 L/ha. Each treatment was replicated three times. Treated plants and controls were maintained in a greenhouse for 14 to 21 days, after which time all treated plants were compared to controls and visually evaluated. Plant response ratings were calculated as the means of the three replicates and are summarized in Tables F1 to F6, and are based on a scale of 0 to 100 where 0 is no effect and 100 is complete control. Because cloquintocet-mexyl alone caused no injury at the rates tested, the expected effect of a mixture of Compound 3 with cloquintocet-mexyl is the same as the observed effect of Compound 3 applied alone.

[5] = test system: winter wheat (TRZAW, Triticum aestivum); assay: as above; settings: applied alone
From the text: as §2, §3

[6] = test system: winter barley (HORVX, Hordeum vulgare); assay: as above; settings: applied alone
From the text: as §2, §3

[7] = test system: wild oat (AVEFA, Avena fatua); assay: Test G mixtures of Compound 26 with crop safeners, postemergence plant response; settings: applied alone
Description: This test evaluated the effect of mixtures of Compound 26 with commercial crop safeners cloquintocet-mexyl, mefenpyr-diethyl, and fenchlorazole-ethyl on three plant species. Seeds of winter wheat (TRZAW, Triticum aestivum), winter barley (HORVX, Hordeum vulgare), and wild oat (AVEFA, Avena fatua) (a weed) were planted into a silt loam soil. Plants from these seeds were treated postemergence using test chemicals formulated in a non-phytotoxic solvent mixture that included a surfactant. Plants ranged in height from 6 to 10 cm (2- to 3-leaf stage).
Plants were grown in a greenhouse using supplemental lighting to maintain a photoperiod of about 14 hours; daytime and nighttime temperatures were about 22-26° C. and 15-19° C., respectively. Balanced fertilizer was applied through the watering system. Treatments consisted of Compound 26 and the above mentioned safeners alone and in combination using a spray volume of 281 L/ha. Each treatment was replicated four times. Treated plants and controls were maintained in a greenhouse for 15 days, after which time all treated plants were compared to controls and visually evaluated. Plant response ratings were calculated as the means of the four replicates based on a scale of 0 to 100 where 0 is no effect and 100 is complete control and are summarized in Tables G1 to G3. Because the safeners alone caused no injury at the rates tested, the expected effect of a mixture of Compound 26 with a safener is the same as the observed effect of Compound 26 alone.
The highest application rate of each safener was tested alone to confirm the absence of herbicidal activity on the test species when appled postemergence at 125 g ai/ha. Therefore, an extrapolated result of zero for each safener alone at 16, 31, or 62 g ai/ha was used to calculate the mixture response of Compound 26 and these safener application rates.

CCc1cc(-c2ccc(C(F)(F)F)cc2)nn1-c1c(O)cnn(C)c1=O [Compound 11, 4-[5-ethyl-3-[4-(trifluoromethyl)phenyl]-1H-pyrazol-1-yl]-5-hydroxy-2-methyl-3(2H)-pyridazinone]
Plant response rating, Spanishneedles ([1]; 4 g ai/ha, Postemergence): 0
Plant response rating, Spanishneedles ([1]; 16 g ai/ha, Preemergence): 0
Plant response rating, Spanishneedles ([1]; 31 g ai/ha, Preemergence): 0
Plant response rating, Spanishneedles ([1]; Postemergence, 8 g ai/ha): 0
Plant response rating, Spanishneedles ([1]; Postemergence, 16 g ai/ha): 0
Plant response rating, Spanishneedles ([1]; Postemergence, 31 g ai/ha): 0
Plant response rating, Spanishneedles ([1]; Preemergence, 4 g ai/ha): 0
Plant response rating, Ragweed ([2]; 4 g ai/ha, Postemergence): 0
Plant response rating, Ragweed ([2]; 16 g ai/ha, Preemergence): 0
Plant response rating, Ragweed ([2]; 31 g ai/ha, Preemergence): 0
Plant response rating, Ragweed ([2]; Postemergence, 8 g ai/ha): 0
Plant response rating, Ragweed ([2]; Postemergence, 16 g ai/ha): 0
Plant response rating, Ragweed ([2]; Postemergence, 31 g ai/ha): 0
Plant response rating, Ragweed ([2]; Preemergence, 4 g ai/ha): 0
Plant response rating, Field Bindweed ([3]; 4 g ai/ha, Postemergence): 0
Plant response rating, Field Bindweed ([3]; 8 g ai/ha, Preemergence): 0
Plant response rating, Field Bindweed ([3]; 16 g ai/ha, Preemergence): 0
Plant response rating, Field Bindweed ([3]; 31 g ai/ha, Preemergence): 0
Plant response rating, Field Bindweed ([3]; Postemergence, 8 g ai/ha): 0
Plant response rating, Field Bindweed ([3]; Postemergence, 16 g ai/ha): 0
Plant response rating, Field Bindweed ([3]; Postemergence, 31 g ai/ha): 0
Plant response rating, Field Bindweed ([3]; Preemergence, 4 g ai/ha): 0
AVEFA Obsd. (observed effect) plant response rating, scale 0 to 100 ([4]; postemergence, 4 g a.i./ha): 75
AVEFA Obsd. (observed effect) plant response rating, scale 0 to 100 ([4]; postemergence, 8 g a.i./ha): 97
AVEFA Obsd. (observed effect) plant response rating, scale 0 to 100 ([4]; postemergence, 16 g a.i./ha): 98
AVEFA Obsd. (observed effect) plant response rating, scale 0 to 100 ([4]; preemergence, 4 g a.i./ha): 58
AVEFA Obsd. (observed effect) plant response rating, scale 0 to 100 ([4]; preemergence, 8 g a.i./ha): 77
AVEFA Obsd. (observed effect) plant response rating, scale 0 to 100 ([4]; preemergence, 16 g a.i./ha): 93
TRZAW Obsd. (observed effect) plant response rating, scale 0 to 100 ([5]; postemergence, 4 g a.i./ha): 18
TRZAW Obsd. (observed effect) plant response rating, scale 0 to 100 ([5]; postemergence, 8 g a.i./ha): 3
TRZAW Obsd. (observed effect) plant response rating, scale 0 to 100 ([5]; postemergence, 16 g a.i./ha): 32
TRZAW Obsd. (observed effect) plant response rating, scale 0 to 100 ([5]; preemergence, 4 g a.i./ha): 32
TRZAW Obsd. (observed effect) plant response rating, scale 0 to 100 ([5]; preemergence, 8 g a.i./ha): 72
TRZAW Obsd. (observed effect) plant response rating, scale 0 to 100 ([5]; preemergence, 16 g a.i./ha): 92
HORVX Obsd. (observed effect) plant response rating, scale 0 to 100 ([6]; postemergence, 4 g a.i./ha): 5
HORVX Obsd. (observed effect) plant response rating, scale 0 to 100 ([6]; postemergence, 8 g a.i./ha): 55
HORVX Obsd. (observed effect) plant response rating, scale 0 to 100 ([6]; postemergence, 16 g a.i./ha): 90
HORVX Obsd. (observed effect) plant response rating, scale 0 to 100 ([6]; preemergence, 4 g a.i./ha): 22
HORVX Obsd. (observed effect) plant response rating, scale 0 to 100 ([6]; preemergence, 8 g a.i./ha): 70
HORVX Obsd. (observed effect) plant response rating, scale 0 to 100 ([6]; preemergence, 16 g a.i./ha): 92

CCc1cc(-c2ccc(C(F)(F)F)cc2)nn1-c1c(OS(C)(=O)=O)cnn(C)c1=O [Compound 19]
Plant response rating, Spanishneedles ([1]; 4 g ai/ha, Postemergence): 0
Plant response rating, Spanishneedles ([1]; 16 g ai/ha, Preemergence): 0
Plant response rating, Spanishneedles ([1]; 31 g ai/ha, Preemergence): 0
Plant response rating, Spanishneedles ([1]; Postemergence, 8 g ai/ha): 0
Plant response rating, Spanishneedles ([1]; Postemergence, 16 g ai/ha): 0
Plant response rating, Spanishneedles ([1]; Preemergence, 4 g ai/ha): 0
Plant response rating, Ragweed ([2]; 4 g ai/ha, Postemergence): 0
Plant response rating, Ragweed ([2]; 16 g ai/ha, Preemergence): 0
Plant response rating, Ragweed ([2]; 31 g ai/ha, Preemergence): 0
Plant response rating, Ragweed ([2]; Postemergence, 8 g ai/ha): 0
Plant response rating, Ragweed ([2]; Postemergence, 16 g ai/ha): 0
Plant response rating, Ragweed ([2]; Postemergence, 31 g ai/ha): 0
Plant response rating, Ragweed ([2]; Preemergence, 4 g ai/ha): 0
Plant response rating, Field Bindweed ([3]; 4 g ai/ha, Postemergence): 0
Plant response rating, Field Bindweed ([3]; 8 g ai/ha, Preemergence): 0
Plant response rating, Field Bindweed ([3]; 16 g ai/ha, Preemergence): 0
Plant response rating, Field Bindweed ([3]; 31 g ai/ha, Preemergence): 0
Plant response rating, Field Bindweed ([3]; Postemergence, 8 g ai/ha): 0
Plant response rating, Field Bindweed ([3]; Postemergence, 16 g ai/ha): 0
Plant response rating, Field Bindweed ([3]; Postemergence, 31 g ai/ha): 0
Plant response rating, Field Bindweed ([3]; Preemergence, 4 g ai/ha): 0

CCc1c(C)c(-c2ccc(Cl)cc2)nn1-c1c(O)cnn(C)c1=O [Compound 26, 4-[3-(4-chlorophenyl)-5-ethyl-4-methyl-1H-pyrazol-1-yl]-5-hydroxy-2-methyl-3(2H)-pyridazinone]
AVEFA Obsd. (observed effect) plant response rating, scale 0 to 100 ([7]; 62 g a.i./ha): 89
AVEFA Obsd. (observed effect) plant response rating, scale 0 to 100 ([7]; 125 g a.i./ha): 97
AVEFA Obsd. (observed effect) plant response rating, scale 0 to 100 ([7]; 250 g a.i./ha): 99

4-[3-(4-chlorophenyl)-5-methyl-1H-pyrazol-3-yl]-5-hydroxy-2-methyl-3(2H)-pyridazinone [Compound 3]
AVEFA Obsd. (observed effect) plant response rating, scale 0 to 100 ([4]; postemergence, 4 g a.i./ha): 27
AVEFA Obsd. (observed effect) plant response rating, scale 0 to 100 ([4]; postemergence, 8 g a.i./ha): 67
AVEFA Obsd. (observed effect) plant response rating, scale 0 to 100 ([4]; postemergence, 16 g a.i./ha): 83
AVEFA Obsd. (observed effect) plant response rating, scale 0 to 100 ([4]; preemergence, 4 g a.i./ha): 0
AVEFA Obsd. (observed effect) plant response rating, scale 0 to 100 ([4]; preemergence, 8 g a.i./ha): 35
AVEFA Obsd. (observed effect) plant response rating, scale 0 to 100 ([4]; preemergence, 16 g a.i./ha): 60
TRZAW Obsd. (observed effect) plant response rating, scale 0 to 100 ([5]; postemergence, 4 g a.i./ha): 0
TRZAW Obsd. (observed effect) plant response rating, scale 0 to 100 ([5]; postemergence, 8 g a.i./ha): 0
TRZAW Obsd. (observed effect) plant response rating, scale 0 to 100 ([5]; postemergence, 16 g a.i./ha): 22
TRZAW Obsd. (observed effect) plant response rating, scale 0 to 100 ([5]; preemergence, 4 g a.i./ha): 0
TRZAW Obsd. (observed effect) plant response rating, scale 0 to 100 ([5]; preemergence, 8 g a.i./ha): 33
TRZAW Obsd. (observed effect) plant response rating, scale 0 to 100 ([5]; preemergence, 16 g a.i./ha): 77
HORVX Obsd. (observed effect) plant response rating, scale 0 to 100 ([6]; postemergence, 4 g a.i./ha): 0
HORVX Obsd. (observed effect) plant response rating, scale 0 to 100 ([6]; postemergence, 8 g a.i./ha): 0
HORVX Obsd. (observed effect) plant response rating, scale 0 to 100 ([6]; postemergence, 16 g a.i./ha): 15
HORVX Obsd. (observed effect) plant response rating, scale 0 to 100 ([6]; preemergence, 4 g a.i./ha): 10
HORVX Obsd. (observed effect) plant response rating, scale 0 to 100 ([6]; preemergence, 8 g a.i./ha): 32
HORVX Obsd. (observed effect) plant response rating, scale 0 to 100 ([6]; preemergence, 16 g a.i./ha): 68
